Data from US20250277066A1, “Substituted Pyridine-2,6-Bis(Phenylenephenolate) Complexes with Enhanced Solubility that are Useful as Catalyst Components for Olefin Polymerization” (ExxonMobil Chemical Patents Inc., priority 2022, published 2025).
Where “and” joins values, the source holds several entries; their conditions need not be identical. Equal values may be shown once.

Columns and labels:
[1] = Propylene polymerization (PP) in small-scale autoclave reactors: yield, quench time, catalyst activity; conditions: activator A
From the text: Solutions of the pre-catalysts were made using toluene (ExxonMobil Chemical—anhydrous, stored under N2) (98%) or isohexane (ExxonMobil Chemical—polymerization grade, and purified as described below). Pre-catalyst solutions were typically 0.25 mmol/L.
Solvents, polymerization grade toluene and/or isohexanes were supplied by ExxonMobil Chemical Co. and are purified by passing through a series of columns: two 500 cc Oxyclear cylinders in series from Labclear (Oakland, Calif), followed by two 500 cc columns in series packed with dried […] (8-12 mesh; Aldrich Chemical Company), and two 500 cc columns in series packed with dried 5 Å mole sieves (8-12 mesh; Aldrich Chemical Company).
Polymerization grade propylene (C3) was used and further purified by passing it through a series of columns: 2250 cc Oxiclear cylinder from Labclear followed by a 2250 cc column packed with 3 Å mole sieves (8-12 mesh; Aldrich Chemical Company), then two 500 cc columns in series packed with 5 Å mole sieves (8-12 mesh; Aldrich Chemical Company), then a 500 cc column packed with Selexsorb CD (BASF), and finally a 500 cc column packed with Selexsorb COS (BASF).
Activation of the pre-catalysts was either by dimethylanilinium tetrakisperfluorophenylborate (Boulder Scientific or Albemarle Corp; Act ID=A) or is (hydrogenated tallow alkyl)methylammonium tetrakis(pentafluorophenyl)borate supplied as a 10 wt % solution in methylcyclohexane (Boulder Scientific; Act ID=B). Activators were typically used as a 0.25 mmol/L solution in toluene or isohexane.
Tri-n-octylaluminum (TnOAl or TNOA, Neat, AkzoNobel) was also used as a scavenger prior to introduction of the activator and pre-catalyst into the reactor. TNOA was typically used as a 5 mmol/L solution in toluene or isohexane.
Polymerizations were conducted in an inert atmosphere (N2) drybox using autoclaves equipped with an external heater for temperature control, glass inserts (internal volume of reactor=23.5 mL for C2 and C2/C8; 22.5 mL for C3 runs), septum inlets, regulated supply of nitrogen, ethylene and propylene, and equipped with disposable PEEK mechanical stirrers (800 RPM). The autoclaves were prepared by purging with dry nitrogen at 110° C. or 115° C. for 5 hours and then at 25° C. for 5 hours.
The reactor was prepared as described above, then heated to 40° C., and then purged with propylene gas at atmospheric pressure. Toluene or isohexanes, liquid propylene (1.0 mL) and scavenger (TNOA, 0.5 μmol) were added via syringe. The reactor was then brought to process temperature (70° C. or 100° C.) while stirring at 800 RPM. The activator solution, followed by the pre-catalyst solution, were injected via syringe to the reactor at process conditions. Reactor temperature was monitored and typically maintained within +/−1° C. Polymerizations were halted by addition of approximately 50 psi compressed dry air gas mixture to the autoclaves for approximately 30 seconds. The polymerizations were quenched based on a predetermined pressure loss (maximum quench value) or for a maximum of 30 minutes. The reactors were cooled and vented. The polymers were isolated after the solvent was removed in-vacuo. The actual quench time (s) is reported as quench time (s). Yields reported include total weight of polymer and residual catalyst. Catalyst activity is reported as grams of polymer per mmol transition metal compound per hour of reaction time (g/mmol·hr).
Polymerization results are collected in Tables 2 below. “Ex #” stands for example number. Example numbers starting with a “C” are comparative examples. “Cat ID” identifies the pre-catalyst used in the experiment. Corresponding numbers identifying the pre-catalyst (also referred to as pre-catalyst, catalyst, complex or compound) are located in the synthetic experimental section. T(° C.) is the polymerization temperature which was typically maintained within +/−1° C. “Yield” is polymer yield, and is not corrected for catalyst residue. […]

[2] = Rapid GPC of polymers (Mn, Mw, Mz, PDI); assay type: physicochemical; parameters: Mn / Mw / Mz: unit not given here
Protocol: For analytical testing, polymer sample solutions were prepared by dissolving polymer in 1,2,4-trichlorobenzene (TCB, 99+% purity from Sigma-Aldrich) containing 2,6-di-tert-butyl-4-methylphenol (BHT, 99% from Aldrich) at 165° C. in a shaker oven for approximately 3 hours. The typical concentration of polymer in solution was between 0.1 to 0.9 mg/mL with a BHT concentration of 1.25 mg BHT/mL of TCB. Samples were cooled to 135° C. for testing.
High temperature size exclusion chromatography was performed using an automated “Rapid GPC” system as described in U.S. Pat. Nos. 6,491,816; 6,491,823; 6,475,391; 6,461,515; 6,436,292; 6,406,632; 6,175,409; 6,454,947; 6,260,407; and 6,294,388; each of which is incorporated herein by reference. Molecular weights (weight average molecular weight (Mw), number average molecular weight (Mn) and z average molecular weight (Mz)) and molecular weight distribution (MWD=Mw/Mn), which is also sometimes referred to as the polydispersity (PDI) of the polymer, were measured by Gel Permeation Chromatography using a Symyx Technology GPC equipped with evaporative light scattering detector (ELSD) and calibrated using polystyrene standards (Polymer Laboratories: Polystyrene Calibration Kit S-M-10: Mp (peak Mw) between 5,000 and 3,390,000). Alternatively, samples were measured by Gel Permeation Chromatography using a Symyx Technology GPC equipped with dual wavelength infrared detector and calibrated using polystyrene standards (Polymer Laboratories: Polystyrene Calibration Kit S-M-10: Mp (peak Mw) between 580 and 3,039,000). […] No column spreading corrections were employed. Numerical analyses were performed using Epoch® software available from Symyx Technologies or Automation Studio software available from Freeslate. The molecular weights obtained are relative to linear polystyrene standards. Molecular weight data is reported in Table 2 under the headings Mn, Mw, Mz and PDI as defined above.

[3] = Solubility of complexes in isohexane (Method 1 or Method 2); assay type: physicochemical; conditions: ambient temperature (20° C.-25° C.), mass includes residual solvent
Protocol: Solubility studies for all other complexes were performed using material as synthesized. […] Solvents used were sparged with nitrogen (30-60 minutes) and dried over 3 Å mole sieves. Unless stated otherwise all measurements were performed at ambient temperature (20° C.-25° C.).
General procedure: Solubility was determined using the following Method 1 or Method 2. For calculations, a value of 0.672 g/mL was used for the density of isohexane.
Method 1: A tared vial was loaded with a small amount of the complex (actual mass recorded, including any residual solvent as noted above, typically 5-30 mg). Then a small stir bar (8 mm) was added. Solvent was then added and the mixture was stirred rapidly (1000 rpm). […] This process was repeated until either a clear solution was obtained (no visible solids or murkiness) or the vial was full. As the mixture approached homogeneity (i.e., few remaining solids observed) the volume of the solvent additions was kept small (<1 mL) to minimize excess beyond the solvent required to achieve homogeneity. The stir bar was then removed and the mass of the mixture was measured. If a clear solution had formed then the solubility of the complex was calculated as a single value, based on the mass of complex and the amount of solvent added to achieve a homogeneous solution. If the mixture remained heterogeneous (visible solids or murky), then the value reported is given as being “less than” the calculated value.
Method 2: A measured amount of complex (actual mass recorded, including any residual solvent as noted above) was added to a tared vial, followed by a stir bar. Dry isohexanes were added in small portions and the resulting mixture was stirred after each portion of isohexanes. If a clear solution had formed then the solubility was reported as a range, the lower bound of solubility calculated using the total solvent added to achieve a homogenous solution and the upper bound of solubility calculated using the total solvent measured prior to achieving a homogenous solution. If the mixture remained heterogeneous (visible solids or murky), the upper bound of solubility was calculated using the total solvent added. Formula used to calculate solubility are listed below. Solvent present in the complex is included in the mass and formula weight of the complexes.

[4] = DSC melting point of polymers (TA-Q100); assay type: physicochemical
Protocol: Differential Scanning Calorimetry (DSC) measurements were performed on a TA-Q100 instrument to determine the melting point of the polymers. Samples were pre-annealed at 220° C. for 15 minutes and then allowed to cool to room temperature overnight. The samples were then heated to 220° C. at a rate of 100° C./minute and then cooled at a rate of 50° C./minute. Melting points were collected during the heating period. The results are reported in the Table 2 under the heading, Tm (° C.).

[5] = polypropylene made with activator A at 70° C.
[6] = polypropylene made with activator A at 70° C., Mw/Mn
[7] = polypropylene made with activator A at 100° C.
[8] = polypropylene made with activator A at 100° C., Mw/Mn
[9] = polymer made with activator A, T 70 ° C.

| Compound | Activity ([1]; T 70° C.) | Activity ([1]; T 100° C.) | Mn [2, 5] | Mw [2, 5] | Mz [2, 5] | PDI [2, 6] | Mn [2, 7] | Mw [2, 7] | Mz [2, 7] | PDI [2, 8] | Solubility (s) in Isohexane [3] [µM] | Solubility (s) in Isohexane (wt %) [3] [wt %] | Tm [4, 5] | Tm [4, 7] | Mn [2, 9] | Mw [2, 9] | Mz [2, 9] | PDI [2, 9] | Tm [4, 9] [°C] |
| --- | --- | --- | --- | --- | --- | --- | --- | --- | --- | --- | --- | --- | --- | --- | --- | --- | --- | --- | --- |
| Cc1cc2c(c(C34CC5CC(CC(C5)C3)C4)c1)[O][Zr-]1([CH3])([CH3])[O]c3c(cc(C)cc3C34CC5CC(CC(C5)C3)C4)-c3ccccc3-c3cccc([n+]31)-c1ccccc1-2 [Complex 1] | 5,668,800 g P/mmol cat • hr and 7,619,077 g P/mmol cat • hr and 6,920,571 g P/mmol cat • hr | 3,931,500 g P/mmol cat • hr and 4,448,471 g P/mmol cat • hr and 2,644,800 g P/mmol cat • hr | 57,753 and 64,376 and 67,290 | 372,797 and 502,821 and 428,075 | 1,464,190 and 2,141,863 and 1,753,319 | 6.46 and 7.81 and 6.36 | 28,762 and 34,553 and 48,560 | 152,087 and 155,815 and 169,007 | 646,646 and 665,846 and 624,200 | 5.29 and 4.51 and 3.48 | <600 | <0.08 | 147.5 °C and 147.3 °C and 148.1 °C | 145.8 °C and 147.0 °C |  |  |  |  |  |
| Cc1cc2c(c(C34CC5CC(C)(CC(C)(C5)C3)C4)c1)[O][Hf-]1([CH3])([CH3])[O]c3c(cc(C)cc3C34CC5CC(C)(CC(C)(C5)C3)C4)-c3ccccc3-c3cc(N4CCCC4)cc([n+]31)-c1ccccc1-2 [Complex 30] | 7,103 g P/mmol cat • hr and 6,836 g P/mmol cat • hr and 8,533 g P/mmol cat • hr | 4,453 g P/mmol cat • hr and 6,707 g P/mmol cat • hr and 8,689 g P/mmol cat • hr | 186,851 and 187,906 and 245,411 | 346,587 and 346,773 and 427,041 | 762,107 and 711,356 and 871,754 | 1.85 and 1.74 | 86,554 and 106,308 and 121,006 | 147,732 and 177,827 and 199,815 | 301,600 and 354,753 and 438,188 | 1.71 and 1.67 and 1.65 |  |  | 163.3 °C and 163.5 °C and 164.8 °C | 158.0 °C and 158.7 °C and 159.0 °C |  |  |  |  |  |
| Cc1cc2[n+]3c(c1)-c1ccccc1-c1cc(C(C)(C)C)cc(C45CC6CC(CC(C6)C4)C5)c1[O][Zr-]3([CH3])([CH3])[O]c1c(cc(C(C)(C)C)cc1C13CC4CC(CC(C4)C1)C3)-c1ccccc1-2 [compound 3] | 1,251,771 g P/mmol cat • hr |  |  |  |  |  |  |  |  |  |  |  |  |  | 206,080 | 676,784 | 2,471,266 | 3.28 | 150.7 |
